Each structure is given as a SMILES string. Where only a bound is given, the exact number is not on record here.

Data set [1] relates to rat. Particulars: Subchronic dermal toxicity, sprague dawley, Topical, dose end: 13 week, group: systemic, systemic / in life observation / clinical signs / desquamation + systemic / in life observation / clinical signs / erythema + systemic / in ….
The test system of data set [2] is rat. Particulars: Prenatal developmental toxicity study, sprague dawley, Oral, Gavage/Intubation, dose end: 15 GD.
Data set [3] concerns rat. Particulars: Subchronic oral toxicity in rodents, fischer, Gavage/Intubation, dose end: 90 day, group: systemic, systemic / clinical chemistry / cholesterol / cholesterol + systemic / in life observation / food consumption / food consumption + systemic….
The test system of data set [4] is rat. Particulars: Chronic toxicity, fischer, Oral, Gavage/Intubation, dose end: 1 year, group: systemic.
In data set [5] the test system is mouse. To be noted: Carcinogenicity; cd1; Oral; Gavage/Intubation; dose end: 104 week; group: systemic; systemic / pathology microscopic / gallbladder / adenoma + systemic / pathology microscopic / gallbladder / hemangioma + systemic / ….
For data set [6], the system named is mouse. To be noted: Subchronic oral toxicity in rodents, b6c3f1, Gavage/Intubation, dose end: 13 week, group: systemic.
Data set [7] has as its system rat. To be noted: Prenatal developmental toxicity study, Oral, Gavage/Intubation, dose end: 19 GD.
In data set [8] the test system is rat. Particulars: Subchronic oral toxicity in rodents, wistar, Feed, dose end: 90 day, group: systemic, systemic / in life observation / clinical signs / motor activity + systemic / organ weight / kidney / relative to body weight + systemic / ….
The subject of data set [9] is rabbit. Particulars: Prenatal developmental toxicity study; new zealand white; Oral; Gavage/Intubation; dose end: 18 GD; group: maternal; systemic / in life observation / body weight / body weight gain.
[10] abbreviates: group: developmental, developmental / developmental malformation / bone / bent + systemic / in life observation / body weight / fetal weight.
Setting [11] is: group: maternal, systemic / in life observation / body weight / body weight + systemic / in life observation / body weight / body weight gain + systemic / in….
The mark [12] stands for this setting: systemic / in life observation / body weight / body weight.
The mark [13] stands for this setting: systemic / in life observation / body weight / body weight + systemic / organ weight / adrenal gland / relative to body weight + systemic / ….
Setting [14] is: systemic / clinical chemistry / fatty acids / fatty acid + systemic / pathology microscopic / bone marrow / hypocellularity + systemic / ….
The mark [15] stands for this setting: systemic / pathology microscopic / liver / hypertrophy.
[16] abbreviates: group: developmental, systemic / in life observation / body weight / fetal weight + developmental / developmental malformation / bone / unossified + developmental….
Where [17] appears, read: group: maternal, reproductive / reproductive performance / resorptions / resorptions + systemic / in life observation / body weight / body weight + systemic….

As to `CCC(C)(C)c1ccc(O)cc1` [4-(2-Methylbutan-2-yl)phenol], in data set [1], the LEL came to 10 mg/kg/day, the LOAEL stood at 10 mg/kg/day, the NEL was 2.5 mg/kg/day and the NOAEL turned out to be 2.5 mg/kg/day. Moreover, in data set [2] (setting [10]), the LEL worked out at 500 mg/kg/day, the LOAEL came out at 500 mg/kg/day, the NEL came to 200 mg/kg/day and the NOAEL was found to be 200 mg/kg/day. In addition, in data set [2] (setting [11]), the LEL was found to be 200 mg/kg/day, the LOAEL was determined as 200 mg/kg/day, the NEL was determined as 50 mg/kg/day and the NOAEL is 50 mg/kg/day.
In the case of `Cc1c(C)c2c(c(C)c1O)CCC(C)(COc1ccc(CC3SC(=O)NC3=O)cc1)O2` (centres undefined) [Troglitazone], the LEL was 20 mg/kg/day in data set [3], 25 mg/kg/day in data set [4] (setting [12]), 50 mg/kg/day in data set [5] and 50 mg/kg/day in [6] (setting [15]). Further, the LOAEL in data set [3] was greater than 2500 mg/kg/day; in data set [4] (setting [13]), greater than 100 mg/kg/day; in data set [5] it was greater than 50 mg/kg/day; in data set [6] (setting [14]) it was greater than 1200 mg/kg/day. Moreover, the NEL is less than 20 mg/kg/day in [3], less than 25 mg/kg/day in data set [4] (setting [12]), 4 mg/kg/day in data set [5] and less than 50 mg/kg/day in data set [6] (setting [15]). For the same molecule, the NOAEL in data set [3] was no less than 2500 mg/kg/day; in [4] (setting [13]) it was no less than 100 mg/kg/day; in data set [5], no less than 50 mg/kg/day; in data set [6] (setting [14]) it was no less than 1200 mg/kg/day.
For `Cc1cc(Cl)ccc1OCC(=O)OCCCCCC(C)C` [MCPA-isooctyl], in data set [7] (group: developmental, developmental / developmental malformation / bone / ossification sites), the LEL was 40 mg/kg/day. Also, in data set [7] (setting [16]), the LOAEL amounted to 120 mg/kg/day, the NEL is 15 mg/kg/day and the NOAEL was determined as 40 mg/kg/day. Further, in [7] (setting [17]), the LEL is 120 mg/kg/day, the LOAEL was determined as 120 mg/kg/day, the NEL was 40 mg/kg/day and the NOAEL was 40 mg/kg/day. For the same molecule, in data set [8], the LEL stood at 54 mg/kg/day, the LOAEL was determined as 54 mg/kg/day, the NEL turned out to be 5 mg/kg/day and the NOAEL turned out to be 5 mg/kg/day.
`Cc1cccc(C)c1NC(=O)CC12CCCN1CCC2.Cl` [Pilsicainide hydrochloride]: in data set [9], the LEL was determined as 10 mg/kg/day, the lowest observed adverse effect level (LOAEL) was greater than 20 mg/kg/day, the NEL was 5 mg/kg/day and the NOAEL was no less than 20 mg/kg/day.

(Values after EPA's ToxRefDB 2.)
